Consider nine compounds from PubChem BioAssay (NCI).

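Five concentrations, 48 hours, 96-well plates. GI50 marks 50% less growth. TGI: concentration producing complete growth inhibition.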

Test systems include RXF 393 renal; DU-145 prostate; ACHN renal; SK-MEL-28 melanoma; SK-OV-3 ovarian; NCI-H23 lung; MDA-MB-435; UACC-257 melanoma.
Common to all, as to test: inhibition of tumour cell growth, NCI panel, 48 h

In the case of `Cn1c(-c2c(N)n(Cc3ccc(F)cc3)c3nc(C#N)c(C#N)nc23)nc2ccccc21`, the GI50 with RXF 393 renal is 1.7 µM; in the assay on DU-145 prostate, 3.02 µM; with ACHN renal, 0.829 µM; in the assay with SK-MEL-28 melanoma it was 5.65 µM; in the assay with SK-OV-3 ovarian, 11 µM; in the assay with NCI-H23 lung, 1.3 µM. Further, the GI50 in the assay on MDA-MB-435 was 1.83 µM; in the assay with UACC-257 melanoma, 4.51 µM. Also, the TGI in the assay on RXF 393 renal is 4.86 µM; with DU-145 prostate, 21.6 µM; in the assay with ACHN renal, 2.43 µM; in the assay with SK-MEL-28 melanoma, 29 µM; with SK-OV-3 ovarian, 33.8 µM; in the assay with NCI-H23 lung, 4.08 µM. The TGI in the assay with MDA-MB-435 was 13.3 µM; with UACC-257 melanoma it was greater than 50 µM.

Take `C=CC(=O)Nc1cccc(Oc2nc(Nc3ccc(N4CCN(C)CC4)cc3OC)ncc2Cl)c1`: the GI50 with RXF 393 renal was 1.49 µM; in the assay on DU-145 prostate, 1.59 µM; with ACHN renal it was 0.421 µM; in the assay on SK-MEL-28 melanoma, 2.02 µM; in the assay with SK-OV-3 ovarian, 0.342 µM; with NCI-H23 lung it was 3.92 µM. Further, the GI50 in the assay with MDA-MB-435 is 1.7 µM; with UACC-257 melanoma, 1.62 µM. In addition, the TGI in the assay with RXF 393 renal came to 3.12 µM; in the assay on DU-145 prostate, 6.07 µM; in the assay with ACHN renal it was 3.14 µM; in the assay on SK-MEL-28 melanoma, 4.07 µM; in the assay on SK-OV-3 ovarian it was 5.33 µM; with NCI-H23 lung it was 23.7 µM. Moreover, the TGI in the assay on MDA-MB-435 is 3.24 µM; in the assay with UACC-257 melanoma, 3.17 µM.

In the case of `C=C1C(=O)O[C@H]2[C@H]1CC/C(CNC(=O)/C=C/c1ccccc1F)=C\CC[C@@]1(C)O[C@@H]21`, the GI50 in the assay with RXF 393 renal is 1.24 µM; in the assay on DU-145 prostate it was 1.03 µM; in the assay with ACHN renal it was 1.12 µM; in the assay on SK-MEL-28 melanoma it was 1.95 µM; in the assay on SK-OV-3 ovarian it was 13.1 µM; with NCI-H23 lung, 1.88 µM. The GI50 was 1.5 µM with MDA-MB-435 and 1.77 µM in the assay with UACC-257 melanoma. The TGI in the assay on RXF 393 renal came out at 2.7 µM; with DU-145 prostate it was 2.26 µM; in the assay on ACHN renal, 2.53 µM; in the assay on SK-MEL-28 melanoma, 6.19 µM; in the assay on SK-OV-3 ovarian, 28.3 µM; with NCI-H23 lung, 4.42 µM. Besides, the TGI with MDA-MB-435 is 6.34 µM; in the assay with UACC-257 melanoma, 3.59 µM.

With `CN(C)Cc1c(C(=O)NCCOc2ccc(C(=O)NO)cc2)oc2ccccc12`, the GI50 with RXF 393 renal is 0.197 µM; with DU-145 prostate, 0.225 µM; in the assay with ACHN renal, 0.264 µM; in the assay on SK-MEL-28 melanoma it was 0.267 µM; in the assay with SK-OV-3 ovarian it was 0.273 µM; in the assay on NCI-H23 lung, 0.267 µM. Moreover, the GI50 is 0.174 µM with MDA-MB-435 and 0.0689 µM in the assay on UACC-257 melanoma. Moreover, the TGI was 0.643 µM in the assay with RXF 393 renal; greater than 33.6 µM in the assay on DU-145 prostate; 1.15 µM in the assay with ACHN renal; 2.5 µM in the assay on SK-MEL-28 melanoma; 2.01 µM in the assay on SK-OV-3 ovarian; 2.06 µM with NCI-H23 lung. Further, the TGI in the assay with MDA-MB-435 is 0.679 µM; in the assay on UACC-257 melanoma it was 0.592 µM.

`NC(=O)c1cc(Br)ccc1NC(=O)/C=C/c1ccccc1`: the GI50 in the assay on RXF 393 renal was 1.15 µM; in the assay on DU-145 prostate it was 2.3 µM; in the assay on ACHN renal, 6.45 µM; in the assay on SK-MEL-28 melanoma it was 1.42 µM; in the assay with SK-OV-3 ovarian, 3.68 µM; with NCI-H23 lung it was 10.8 µM. Moreover, the values for the GI50 in the assay on MDA-MB-435 and in the assay with UACC-257 melanoma were 0.421 µM and 24.9 µM, respectively. The TGI in the assay with RXF 393 renal was 5.9 µM; in the assay with DU-145 prostate, greater than 100 µM; in the assay on ACHN renal, greater than 100 µM; in the assay with SK-MEL-28 melanoma, greater than 100 µM; with SK-OV-3 ovarian, greater than 23.6 µM; in the assay on NCI-H23 lung, greater than 100 µM. Besides, the TGI in the assay on MDA-MB-435 was 3.09 µM; in the assay on UACC-257 melanoma it was greater than 100 µM.

As for `O=[N+]([O-])c1ccc2c(c1)C(c1ccccc1Cl)=Nc1c(n[nH]c1-c1cccnc1)N2`, the GI50 with RXF 393 renal, in the assay on DU-145 prostate, with ACHN renal, in the assay on SK-MEL-28 melanoma, with SK-OV-3 ovarian and with NCI-H23 lung was greater than 25 µM each time. Moreover, the GI50 in the assay on MDA-MB-435 and in the assay with UACC-257 melanoma was greater than 25 µM each time. Further, the TGI in the assay on RXF 393 renal, in the assay on DU-145 prostate, in the assay on ACHN renal, in the assay with SK-MEL-28 melanoma, in the assay with SK-OV-3 ovarian and with NCI-H23 lung was greater than 25 µM in each case. Further, the TGI with MDA-MB-435 and in the assay with UACC-257 melanoma was greater than 25 µM in each case.

Consider `CN(C)CCOc1ccccc1NC1=C(Cl)C(=O)C(Nc2ccccc2OCCN(C)C)=C(Cl)C1=O`, for which the GI50 in the assay with RXF 393 renal is 3.93 µM; in the assay on DU-145 prostate it was 6.64 µM; in the assay with ACHN renal, 0.494 µM; in the assay on SK-MEL-28 melanoma, greater than 95 µM; in the assay with SK-OV-3 ovarian, greater than 47.7 µM; with NCI-H23 lung, 6.47 µM. Moreover, the GI50 in the assay on MDA-MB-435 is 9.42 µM. The TGI in the assay on RXF 393 renal was 10.4 µM; in the assay on ACHN renal, 1.6 µM; in the assay with SK-MEL-28 melanoma, greater than 100 µM; in the assay on SK-OV-3 ovarian it was greater than 83.1 µM; in the assay with NCI-H23 lung, 22.6 µM; in the assay on MDA-MB-435, greater than 40.6 µM. Besides, the TGI with UACC-257 melanoma was greater than 41.1 µM.

On to `O=c1oc2ccc(Br)cc2c(=O)n1-c1ccc(Cl)cc1F`, for which the GI50 in the assay with RXF 393 renal is 1.05 µM; with DU-145 prostate, 1.86 µM; in the assay on ACHN renal, 1.22 µM; with SK-MEL-28 melanoma it was 0.522 µM; in the assay with SK-OV-3 ovarian, 0.672 µM; with NCI-H23 lung it was 1.03 µM. Moreover, the figures for the GI50 with MDA-MB-435 and in the assay with UACC-257 melanoma were 1.35 µM and 0.915 µM, respectively. Besides, the TGI with RXF 393 renal is 4.47 µM; in the assay with DU-145 prostate, 21.3 µM; in the assay with ACHN renal, 12.9 µM; in the assay with SK-MEL-28 melanoma it was 3.03 µM; in the assay with SK-OV-3 ovarian it was 4.48 µM; in the assay with NCI-H23 lung, 4.77 µM. The TGI turned out to be 6.23 µM in the assay on MDA-MB-435 and 5.59 µM in the assay with UACC-257 melanoma.

Regarding `Cc1ccccc1C(C(=O)NC1CCCCC1)N(C(=O)CNc1ccc(C#N)cc1)c1cccc(F)c1` (configuration not stated), the GI50 with RXF 393 renal was 1.84 µM; with DU-145 prostate, 64.4 µM; in the assay with ACHN renal, 11.7 µM; with SK-MEL-28 melanoma it was 32.4 µM; with SK-OV-3 ovarian, 12.9 µM; with NCI-H23 lung, 25.1 µM. Further, the values for the GI50 in the assay with MDA-MB-435 and with UACC-257 melanoma were greater than 72.4 µM and 50 µM, respectively. In addition, the TGI in the assay on RXF 393 renal was 5.6 µM; in the assay with DU-145 prostate, greater than 100 µM; in the assay on ACHN renal, greater than 100 µM; with SK-MEL-28 melanoma, greater than 100 µM; in the assay on SK-OV-3 ovarian it was 52.8 µM; with NCI-H23 lung, greater than 77.6 µM. Also, the TGI in the assay on MDA-MB-435 and in the assay with UACC-257 melanoma was greater than 100 µM throughout.
